Patent publication US7138361B2, “Herbicidal heterocycles” (E. I. du Pont de Nemours and Company, priority 2000, dated 2006)

Experiments:
Type in all cases: in vivo
[1] = test system: Surinam grass (Brachiaria decumbens); test: Test C postemergence
How it was run: (§1)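 Pre- and postemergence treatments used a non-phytotoxic solvent/surfactant formulation; post-treated plants measured 2 to 18 cm. Greenhouse hold 12–14 d; % control estimated visually relative to controls.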

[2] = test system: bermudagrass (Cynodon dactylon); test: Test C postemergence
How it was run: as §1

[3] = test system: chickweed (Stellaria media); test: Test C postemergence
How it was run: as §1

[4] = test system: cocklebur (Xanthium strumarium); test: Test C postemergence
How it was run: as §1

[5] = test system: common ragweed (Ambrosia elatior); test: Test C postemergence
How it was run: as §1

corn (Zea mays) = test: Test C postemergence
How it was run: as §1

[6] = test system: crabgrass (Digitaria sanguinalis); test: Test C postemergence
How it was run: as §1

[7] = test system: giant foxtail (Setaria faberii); test: Test C postemergence; details: scale 0 to 100 (0 no effect, 100 complete control)
How it was run: as §1

[8] = test system: goosegrass (Eleusine indica); test: Test C postemergence
How it was run: as §1

[9] = test system: johnsongrass (Sorghum halepense); test: Test C postemergence
How it was run: as §1

kochia (Kochia scoparia) = test: Test C postemergence
How it was run: as §1

[10] = test system: lambsquarters (Chenopodium album); test: Test C postemergence
How it was run: as §1

[11] = test system: morningglory (Ipomoea hederacea); test: Test C postemergence
How it was run: as §1

[12] = test system: pigweed (Amaranthus retroflexus); test: Test C postemergence
How it was run: as §1

soybean (Glycine max) = test: Test C postemergence
How it was run: as §1

[13] = test system: velvetleaf (Abutilon theophrasti); test: Test C postemergence
How it was run: as §1

[14] = test system: woolly cupgrass (Eriochloa villosa); test: Test C postemergence
How it was run: as §1

[15] = test system: yellow nutsedge (Cyperus esculentus); test: Test C postemergence
How it was run: as §1

Sunflower = test: Test C preemergence; details: Rate 125 g/ha; scale 0 to 100, 0 no effect, 100 complete control
[16] = test system: bermudagrass (Cynodon dactylon); test: Test C preemergence; details: for Plant response rating (0 to 100 where 0 is no effect and 100 is complete control), Bermudagrass: Rate 500 g/ha, visual evaluation after 12 to 14 days
How it was run: as §1

[17] = test system: giant foxtail (Setaria faberii); test: Test C preemergence; details: for Plant response rating (0 to 100), Foxtail, Giant: Rate 500 g/ha, visual evaluation after 12 to 14 days
How it was run: as §1

[18] = test system: pigweed (Amaranthus retroflexus); test: Test C preemergence; details: for Plant response rating (0 to 100), Pigweed: Rate 500 g/ha, visual evaluation after 12 to 14 days
How it was run: as §1

[19] = test system: yellow nutsedge (Cyperus esculentus); test: Test C preemergence; details: for Plant response rating (0 to 100), Nutsedge: Rate 500 g/ha, visual evaluation after 12 to 14 days
How it was run: as §1

[20] = Rate 125 g/ha, scale 0 to 100, 0 no effect, 100 complete control
[21] = Rate 250 g/ha, scale 0 to 100 (0 no effect, 100 complete control)
[22] = Rate 500 g/ha, scale 0 to 100 (0 no effect, 100 complete control)
[23] = preemergence, Rate 62 g/ha, scale 0 to 100
[24] = preemergence, Rate 250 g/ha, scale 0 to 100, 0 no effect, 100 complete control

COc1cc(N2CCC(n3ccc(C(C)C)n3)C2=O)ccc1Br (stereo not drawn) [Compound 140]
30: Plant response rating, Surinam grass ([1]; Rate 62 g/ha, scale 0 to 100) | Plant response rating, Surinam grass [1, 20] | Plant response rating, Bermudagrass ([2]; Rate 62 g/ha, scale 0 to 100) | Plant response rating, Johnsongrass ([9]; Rate 62 g/ha, scale 0 to 100) | Plant response rating, Johnsongrass ([9]; rate not given, scale 0 to 100) | Plant response rating, Pigweed ([12]; Rate 62 g/ha, scale 0 to 100)
40: Plant response rating, Bermudagrass [2, 20] | Plant response rating, Cocklebur ([4]; Rate 62 g/ha, scale 0 to 100) | Plant response rating, Crabgrass ([6]; Rate 62 g/ha, scale 0 to 100) | Plant response rating, Kochia (kochia (Kochia scoparia); Rate 62 g/ha, scale 0 to 100) | Plant response rating, Cupgrass, Woolly ([14]; Rate 62 g/ha, scale 0 to 100) | Plant response rating, Nutsedge [19, 20]
20: Plant response rating, Goosegrass ([8]; Rate 62 g/ha, scale 0 to 100) | Plant response rating, Velvetleaf ([13]; Rate 62 g/ha, scale 0 to 100) | Plant response rating, Velvetleaf ([13]; scale 0 to 100) | Plant response rating, Nutsedge [15, 21] | Plant response rating, Nutsedge [19, 23]
80: Plant response rating, Cocklebur [4, 21] | Plant response rating, Goosegrass [8, 21] | Plant response rating, Lambsquarters ([10]; Rate 62 g/ha, scale 0 to 100) | Plant response rating, Pigweed [12, 21] | Plant response rating, Pigweed [12, 22]
100: Plant response rating, Chickweed [3, 20] | Plant response rating, Cocklebur [4, 22] | Plant response rating, Lambsquarters [10, 22] | Plant response rating, Morningglory [11, 21] | Plant response rating, Morningglory [11, 22] | Plant response rating, Bermudagrass [16, 20] | Plant response rating, Bermudagrass [16, 23] | Plant response rating (0 to 100 where 0 is no effect and 100 is complete control), Bermudagrass ([16]; preemergence) | Plant response rating, Bermudagrass [16, 24] | Plant response rating, Foxtail, Giant [17, 20] | Plant response rating, Foxtail, Giant [17, 23] | Plant response rating (0 to 100), Foxtail, Giant ([17]; preemergence) | Plant response rating, Foxtail, Giant [17, 24] | Plant response rating, Pigweed [18, 20] | Plant response rating, Pigweed [18, 23] | Plant response rating (0 to 100), Pigweed ([18]; preemergence) | Plant response rating, Pigweed [18, 24]
70: Plant response rating, Bermudagrass [2, 21] | Plant response rating, Crabgrass [6, 21] | Plant response rating, Crabgrass [6, 22] | Plant response rating, Soybean (soybean (Glycine max); Rate 62 g/ha, scale 0 to 100) | Plant response rating, Velvetleaf [13, 21] | Plant response rating, Velvetleaf [13, 22] | Plant response rating, Cupgrass, Woolly [14, 21] | Plant response rating, Cupgrass, Woolly [14, 22] | Plant response rating (0 to 100), Nutsedge ([19]; preemergence)
60: Plant response rating, Morningglory ([11]; Rate 62 g/ha, scale 0 to 100) | Plant response rating, Nutsedge [19, 24]
90: Plant response rating, Surinam grass [1, 21] | Plant response rating, Bermudagrass [2, 22] | Plant response rating, Chickweed ([3]; Rate 62 g/ha, scale 0 to 100) | Plant response rating, Ragweed, Common [5, 21] | Plant response rating, Ragweed, Common [5, 22] | Plant response rating, Foxtail, Giant ([7]; Rate 250 g/ha) | Plant response rating, Foxtail, Giant ([7]; Rate 500 g/ha) | Plant response rating, Kochia (kochia (Kochia scoparia); [21]) | Plant response rating, Kochia (kochia (Kochia scoparia); [22]) | Plant response rating, Lambsquarters [10, 21] | Plant response rating, Soybean (soybean (Glycine max); [21]) | Plant response rating, Soybean (soybean (Glycine max); [22])
0: Plant response rating, Corn (corn (Zea mays); Rate 62 g/ha, scale 0 to 100) | Plant response rating, Corn (corn (Zea mays); [21]) | Plant response rating, Corn (corn (Zea mays); [22]) | Plant response rating, Corn (corn (Zea mays); scale 0 to 100) | Plant response rating, Nutsedge ([15]; Rate 62 g/ha, scale 0 to 100)
50: Plant response rating, Ragweed, Common ([5]; Rate 62 g/ha, scale 0 to 100) | Plant response rating, Johnsongrass [9, 21] | Plant response rating, Johnsongrass [9, 22] | Plant response rating, Sunflower (Sunflower)

COc1cc(N2CCC(n3ccc(C(C)(C)C)n3)C2=O)ccc1Br (stereo not drawn) [Compound 141]
10: Plant response rating, Kochia (kochia (Kochia scoparia); Rate 62 g/ha, scale 0 to 100)
100: Plant response rating, Bermudagrass [2, 22] | Plant response rating, Chickweed [3, 20] | Plant response rating, Chickweed [3, 21] | Plant response rating, Chickweed [3, 22] | Plant response rating, Cocklebur [4, 22] | Plant response rating, Lambsquarters [10, 22] | Plant response rating, Morningglory [11, 22] | Plant response rating, Pigweed [12, 22] | Plant response rating, Soybean (soybean (Glycine max); [21]) | Plant response rating, Soybean (soybean (Glycine max); [22]) | Plant response rating, Bermudagrass [16, 20] | Plant response rating, Bermudagrass [16, 23] | Plant response rating (0 to 100 where 0 is no effect and 100 is complete control), Bermudagrass ([16]; preemergence) | Plant response rating, Bermudagrass [16, 24] | Plant response rating, Foxtail, Giant [17, 20] | Plant response rating, Foxtail, Giant [17, 23] | Plant response rating (0 to 100), Foxtail, Giant ([17]; preemergence) | Plant response rating, Foxtail, Giant [17, 24] | Plant response rating, Pigweed [18, 20] | Plant response rating, Pigweed [18, 23] | Plant response rating (0 to 100), Pigweed ([18]; preemergence) | Plant response rating, Pigweed [18, 24]
20: Plant response rating, Surinam grass ([1]; Rate 62 g/ha, scale 0 to 100) | Plant response rating, Ragweed, Common ([5]; Rate 62 g/ha, scale 0 to 100) | Plant response rating, Goosegrass ([8]; Rate 62 g/ha, scale 0 to 100) | Plant response rating, Johnsongrass ([9]; Rate 62 g/ha, scale 0 to 100)
90: Plant response rating, Chickweed ([3]; Rate 62 g/ha, scale 0 to 100) | Plant response rating, Ragweed, Common [5, 22] | Plant response rating, Kochia (kochia (Kochia scoparia); [22]) | Plant response rating, Soybean (soybean (Glycine max); Rate 62 g/ha, scale 0 to 100)
70: Plant response rating, Cocklebur ([4]; Rate 62 g/ha, scale 0 to 100) | Plant response rating, Cocklebur [4, 21] | Plant response rating, Crabgrass [6, 22] | Plant response rating, Goosegrass [8, 22] | Plant response rating, Lambsquarters ([10]; Rate 62 g/ha, scale 0 to 100) | Plant response rating, Morningglory ([11]; Rate 62 g/ha, scale 0 to 100) | Plant response rating, Pigweed ([12]; Rate 62 g/ha, scale 0 to 100) | Plant response rating, Pigweed [12, 21] | Plant response rating, Cupgrass, Woolly [14, 22]
40: Plant response rating, Surinam grass [1, 20] | Plant response rating, Bermudagrass ([2]; Rate 62 g/ha, scale 0 to 100) | Plant response rating, Johnsongrass [9, 22] | Plant response rating, Sunflower (Sunflower)
30: Plant response rating, Johnsongrass [9, 21] | Plant response rating, Johnsongrass ([9]; rate not given, scale 0 to 100) | Plant response rating, Cupgrass, Woolly ([14]; Rate 62 g/ha, scale 0 to 100)
80: Plant response rating, Ragweed, Common [5, 21] | Plant response rating, Foxtail, Giant ([7]; Rate 250 g/ha) | Plant response rating, Kochia (kochia (Kochia scoparia); [21]) | Plant response rating, Velvetleaf [13, 22]
0: Plant response rating, Corn (corn (Zea mays); Rate 62 g/ha, scale 0 to 100) | Plant response rating, Corn (corn (Zea mays); [21]) | Plant response rating, Corn (corn (Zea mays); [22]) | Plant response rating, Corn (corn (Zea mays); scale 0 to 100) | Plant response rating, Nutsedge ([15]; Rate 62 g/ha, scale 0 to 100) | Plant response rating, Nutsedge [15, 21] | Plant response rating, Nutsedge [15, 22] | Plant response rating, Nutsedge [19, 20] | Plant response rating, Nutsedge [19, 23] | Plant response rating, Nutsedge [19, 24]
50: Plant response rating, Goosegrass [8, 21] | Plant response rating, Velvetleaf ([13]; Rate 62 g/ha, scale 0 to 100) | Plant response rating, Velvetleaf [13, 21] | Plant response rating, Velvetleaf ([13]; scale 0 to 100) | Plant response rating, Cupgrass, Woolly [14, 21] | Plant response rating (0 to 100), Nutsedge ([19]; preemergence)
60: Plant response rating, Surinam grass [1, 21] | Plant response rating, Surinam grass [1, 22] | Plant response rating, Bermudagrass [2, 20] | Plant response rating, Bermudagrass [2, 21] | Plant response rating, Crabgrass ([6]; Rate 62 g/ha, scale 0 to 100) | Plant response rating, Crabgrass [6, 21]
